Experimental data reported in patent publication US5843889A, “Glycopeptide antibiotic derivatives” (Eli Lilly and Company, priority 1997, dated 1998).
In brackets after ≈: the same amount, converted by molar mass.

How the values were obtained:
Experiment in all cases: MIC, standard broth micro-dilution assay
Format in all cases: cell-based
[1] = tested on: Entercoccus faecalis 2041
Experimental: (§1) The formula I compounds have in vitro and in vivo activity against Gram-positive pathogenic bacteria. The MIC's were determined using a standard broth micro-dilution assay.

Entercoccus faecalis 276 = tested on: Entercoccus faecalis 276
Experimental: as §1

[2] = tested on: Entercoccus gallinarum 245
Experimental: as §1

| Compound | MIC [1] [µg/mL] | MIC (Entercoccus faecalis 276) [µg/mL] | MIC [2] [µg/mL] |
| --- | --- | --- | --- |
| CNC(CC(C)C)C(=O)NC1C(=O)NC(CC(N)=O)C(=O)NC2C(=O)NC3C(=O)NC(C(=O)NC(C(=O)O)c4cc(O)cc(O)c4-c4cc3ccc4O)C(OC3CC(C)(N)C(O)C(C)O3)c3ccc(c(Cl)c3)Oc3cc2cc(c3OC2OC(CO)C(O)C(O)C2OC2CC(C)(NCc3ccc(-c4ccc([N+](=O)[O-])cc4)cc3)C(O)C(C)O2)Oc2ccc(cc2Cl)C1O (stereo not drawn) [Compound 64, 4-[4-nitrophenyl]benzyl] | ≤ 0.06 | 0.5 (≈ 0.277 µM) | 2 (≈ 1.11 µM) |
| CNC(CC(C)C)C(=O)NC1C(=O)NC(CC(N)=O)C(=O)NC2C(=O)NC3C(=O)NC(C(=O)NC(C(=O)O)c4cc(O)cc(O)c4-c4cc3ccc4O)C(OC3CC(C)(N)C(O)C(C)O3)c3ccc(c(Cl)c3)Oc3cc2cc(c3OC2OC(CO)C(O)C(O)C2OC2CC(C)(NCCCCCCCCCCc3ccccc3)C(O)C(C)O2)Oc2ccc(cc2Cl)C1O (stereo not drawn) [Compound 197, 10-phenyldecyl] | 0.25 (≈ 0.138 µM) | 1 (≈ 0.553 µM) | 4 (≈ 2.21 µM) |
| CCCCCCCCOc1ccc(-c2ccc(CNC3(C)CC(OC4C(Oc5c6cc7cc5Oc5ccc(cc5Cl)C(OC5CC(C)(N)C(O)C(C)O5)C5NC(=O)C(NC(=O)C7NC(=O)C(CC(N)=O)NC(=O)C(NC(=O)C(CC(C)C)NC)C(O)c7ccc(c(Cl)c7)O6)c6ccc(O)c(c6)-c6c(O)cc(O)cc6C(C(=O)O)NC5=O)OC(CO)C(O)C4O)OC(C)C3O)cc2)cc1 (stereo not drawn) [Compound 23, 4-[4-octyloxyphenyl]benzyl] | 32 (≈ 17 µM) | 32 (≈ 17 µM) | 8 (≈ 4.24 µM) |
| CNC(CC(C)C)C(=O)NC1C(=O)NC(CC(N)=O)C(=O)NC2C(=O)NC3C(=O)NC(C(=O)NC(C(=O)O)c4cc(O)cc(O)c4-c4cc3ccc4O)C(OC3CC(C)(N)C(O)C(C)O3)c3ccc(c(Cl)c3)Oc3cc2cc(c3OC2OC(CO)C(O)C(O)C2OC2CC(C)(NCc3cnc4ccccc4c3)C(O)C(C)O2)Oc2ccc(cc2Cl)C1O (stereo not drawn) [Compound 28, 3-quinolylmethyl] | 0.25 (≈ 0.144 µM) | ≤ 0.06 | 0.25 (≈ 0.144 µM) |
| CNC(CC(C)C)C(=O)NC1C(=O)NC(CC(N)=O)C(=O)NC2C(=O)NC3C(=O)NC(C(=O)NC(C(=O)O)c4cc(O)cc(O)c4-c4cc3ccc4O)C(OC3CC(C)(N)C(O)C(C)O3)c3ccc(c(Cl)c3)Oc3cc2cc(c3OC2OC(CO)C(O)C(O)C2OC2CC(C)(NCc3cccc(Oc4cccc(C(F)(F)F)c4)c3)C(O)C(C)O2)Oc2ccc(cc2Cl)C1O (stereo not drawn) [Compound 203] | 0.25 (≈ 0.136 µM) | 0.5 (≈ 0.271 µM) | 2 (≈ 1.09 µM) |
| CNC(CC(C)C)C(=O)NC1C(=O)NC(CC(N)=O)C(=O)NC2C(=O)NC3C(=O)NC(C(=O)NC(C(=O)O)c4cc(O)cc(O)c4-c4cc3ccc4O)C(OC3CC(C)(N)C(O)C(C)O3)c3ccc(c(Cl)c3)Oc3cc2cc(c3OC2OC(CO)C(O)C(O)C2OC2CC(C)(NCc3cccc(OC(C)=O)c3)C(O)C(C)O2)Oc2ccc(cc2Cl)C1O (stereo not drawn) [Compound 77, 3-acetoxybenzyl] | 0.25 (≈ 0.144 µM) | 0.25 (≈ 0.144 µM) | 0.25 (≈ 0.144 µM) |
| CNC(CC(C)C)C(=O)NC1C(=O)NC(CC(N)=O)C(=O)NC2C(=O)NC3C(=O)NC(C(=O)NC(C(=O)O)c4cc(O)cc(O)c4-c4cc3ccc4O)C(OC3CC(C)(N)C(O)C(C)O3)c3ccc(c(Cl)c3)Oc3cc2cc(c3OC2OC(CO)C(O)C(O)C2OC2CC(C)(NCc3ccc(OC)c(OCC4CCCCC4)c3)C(O)C(C)O2)Oc2ccc(cc2Cl)C1O (stereo not drawn) [Compound 142, 3-[cyclohexylmethoxy]-4-methoxybenzyl] | ≤ 0.06 | 1 (≈ 0.548 µM) | 1 (≈ 0.548 µM) |
| CNC(CC(C)C)C(=O)NC1C(=O)NC(CC(N)=O)C(=O)NC2C(=O)NC3C(=O)NC(C(=O)NC(C(=O)O)c4cc(O)cc(O)c4-c4cc3ccc4O)C(OC3CC(C)(N)C(O)C(C)O3)c3ccc(c(Cl)c3)Oc3cc2cc(c3OC2OC(CO)C(O)C(O)C2OC2CC(C)(NCc3ccc(-c4ccccn4)cc3)C(O)C(C)O2)Oc2ccc(cc2Cl)C1O (stereo not drawn) [Compound 137, 4-[2-pyridyl]benzyl] | ≤ 0.06 | ≤ 0.06 | 8 (≈ 4.55 µM) |
| 4-[3-trifluoromethylphenoxy]-3-nitrobenzyl [Compound 114] | 0.25 | 1 | 2 |
| CNC(CC(C)C)C(=O)NC1C(=O)NC(CC(N)=O)C(=O)NC2C(=O)NC3C(=O)NC(C(=O)NC(C(=O)O)c4cc(O)cc(O)c4-c4cc3ccc4O)C(OC3CC(C)(N)C(O)C(C)O3)c3ccc(c(Cl)c3)Oc3cc2cc(c3OC2OC(CO)C(O)C(O)C2OC2CC(C)(NCc3cc4ccccc4s3)C(O)C(C)O2)Oc2ccc(cc2Cl)C1O (stereo not drawn) [Compound 19, 2-benzthienylmethyl] | ≤ 0.06 | ≤ 0.06 | ≤ 0.06 |
| CNC(CC(C)C)C(=O)NC1C(=O)NC(CC(N)=O)C(=O)NC2C(=O)NC3C(=O)NC(C(=O)NC(C(=O)O)c4cc(O)cc(O)c4-c4cc3ccc4O)C(OC3CC(C)(N)C(O)C(C)O3)c3ccc(c(Cl)c3)Oc3cc2cc(c3OC2OC(CO)C(O)C(O)C2OC2CC(C)(NCc3ccccc3O)C(O)C(C)O2)Oc2ccc(cc2Cl)C1O (stereo not drawn) [Compound 169, 2-hydroxybenzyl] | ≤ 0.06 | ≤ 0.06 | 4 (≈ 2.35 µM) |
| CC#CCCCCCCCCCCNC1(C)CC(OC2C(Oc3c4cc5cc3Oc3ccc(cc3Cl)C(OC3CC(C)(N)C(O)C(C)O3)C3NC(=O)C(NC(=O)C5NC(=O)C(CC(N)=O)NC(=O)C(NC(=O)C(CC(C)C)NC)C(O)c5ccc(c(Cl)c5)O4)c4ccc(O)c(c4)-c4c(O)cc(O)cc4C(C(=O)O)NC3=O)OC(CO)C(O)C2O)OC(C)C1O (stereo not drawn) [Compound 199, 11-tridecynyl] | ≤ 0.06 | 1 (≈ 0.565 µM) | 4 (≈ 2.26 µM) |
| CNC(CC(C)C)C(=O)NC1C(=O)NC(CC(N)=O)C(=O)NC2C(=O)NC3C(=O)NC(C(=O)NC(C(=O)O)c4cc(O)cc(O)c4-c4cc3ccc4O)C(OC3CC(C)(N)C(O)C(C)O3)c3ccc(c(Cl)c3)Oc3cc2cc(c3OC2OC(CO)C(O)C(O)C2OC2CC(C)(NCc3ccc(-c4ccc([N+](=O)[O-])cc4)c([N+](=O)[O-])c3)C(O)C(C)O2)Oc2ccc(cc2Cl)C1O (stereo not drawn) [Compound 212, 3-nitro-4-[4-nitrophenyl]benzyl] | ≤ 0.06 | ≤ 0.06 | 1 (≈ 0.541 µM) |
| CN[C@H](CC(C)C)C(=O)N[C@H]1C(=O)N[C@@H](CC(N)=O)C(=O)N[C@H]2C(=O)N[C@H]3C(=O)N[C@H](C(=O)N[C@H](C(=O)O)c4cc(O)cc(O)c4-c4cc3ccc4O)[C@H](O[C@H]3C[C@](C)(N)[C@@H](O)[C@H](C)O3)c3ccc(c(Cl)c3)Oc3cc2cc(c3O[C@@H]2O[C@H](CO)[C@@H](O)[C@H](O)[C@H]2O[C@H]2C[C@](C)(NCc3ccc(Oc4ccc(C(C)(C)C)cc4)cc3)[C@@H](O)[C@H](C)O2)Oc2ccc(cc2Cl)[C@H]1O [Compound 96, 4-[4-t-butylphenoxy]benzyl] | 1 (≈ 0.546 µM) | 0.5 (≈ 0.273 µM) | 2 (≈ 1.09 µM) |
| CNC(CC(C)C)C(=O)NC1C(=O)NC(CC(N)=O)C(=O)NC2C(=O)NC3C(=O)NC(C(=O)NC(C(=O)O)c4cc(O)cc(O)c4-c4cc3ccc4O)C(OC3CC(C)(N)C(O)C(C)O3)c3ccc(c(Cl)c3)Oc3cc2cc(c3OC2OC(CO)C(O)C(O)C2OC2CC(C)(NCc3cncc(-c4ccccc4)c3)C(O)C(C)O2)Oc2ccc(cc2Cl)C1O (stereo not drawn) [Compound 151, 5-phenyl-3-pyridinylmethyl] | ≤ 0.06 | ≤ 0.06 | 4 (≈ 2.27 µM) |
| CNC(CC(C)C)C(=O)NC1C(=O)NC(CC(N)=O)C(=O)NC2C(=O)NC3C(=O)NC(C(=O)NC(C(=O)O)c4cc(O)cc(O)c4-c4cc3ccc4O)C(OC3CC(C)(N)C(O)C(C)O3)c3ccc(c(Cl)c3)Oc3cc2cc(c3OC2OC(CO)C(O)C(O)C2OC2CC(C)(NCC34CC5CC(CC(C5)C3)C4)C(O)C(C)O2)Oc2ccc(cc2Cl)C1O (stereo not drawn) [Compound 141, 1-adamantylmethyl] | ≤ 0.06 | 0.5 (≈ 0.287 µM) | 4 (≈ 2.3 µM) |
| CN[C@@H](CC(C)C)C(=O)N[C@H]1C(=O)N[C@H](CC(N)=O)C(=O)N[C@H]2C(=O)N[C@H]3C(=O)N[C@@H](C(=O)NC(C(=O)O)c4cc(O)cc(O)c4-c4cc3ccc4O)[C@@H](O[C@H]3C[C@](C)(N)[C@H](O)[C@@H](C)O3)c3ccc(cc3)Oc3cc2cc(c3O[C@H]2O[C@@H](CO)[C@@H](O)[C@H](O)[C@@H]2O[C@H]2C[C@](C)(N)[C@H](O)[C@@H](C)O2)Oc2ccc(cc2)[C@@H]1O (stereo partly drawn) [Compound A82846C, A82846C, reference compound] | 0.5 (≈ 0.328 µM) | 0.5 (≈ 0.328 µM) | 0.5 (≈ 0.328 µM) |
| CCOC(c1ccccc1)c1ccc(CNC2(C)CC(OC3C(Oc4c5cc6cc4Oc4ccc(cc4Cl)C(OC4CC(C)(N)C(O)C(C)O4)C4NC(=O)C(NC(=O)C6NC(=O)C(CC(N)=O)NC(=O)C(NC(=O)C(CC(C)C)NC)C(O)c6ccc(c(Cl)c6)O5)c5ccc(O)c(c5)-c5c(O)cc(O)cc5C(C(=O)O)NC4=O)OC(CO)C(O)C3O)OC(C)C2O)cc1 (stereo not drawn) [Compound 126] | ≤ 0.06 | 1 (≈ 0.55 µM) | 2 (≈ 1.1 µM) |
| CNC(CC(C)C)C(=O)NC1C(=O)NC(CC(N)=O)C(=O)NC2C(=O)NC3C(=O)NC(C(=O)NC(C(=O)O)c4cc(O)cc(O)c4-c4cc3ccc4O)C(OC3CC(C)(N)C(O)C(C)O3)c3ccc(c(Cl)c3)Oc3cc2cc(c3OC2OC(CO)C(O)C(O)C2OC2CC(C)(NCc3ccc(NC(=O)c4ccc(F)cc4)cc3)C(O)C(C)O2)Oc2ccc(cc2Cl)C1O (stereo not drawn) [Compound 193, 4-[(4-fluorobenzoyl)amino]benzyl] | ≤ 0.06 | ≤ 0.06 | 1 (≈ 0.55 µM) |
| CNC(CC(C)C)C(=O)NC1C(=O)NC(CC(N)=O)C(=O)NC2C(=O)NC3C(=O)NC(C(=O)NC(C(=O)O)c4cc(O)cc(O)c4-c4cc3ccc4O)C(OC3CC(C)(N)C(O)C(C)O3)c3ccc(c(Cl)c3)Oc3cc2cc(c3OC2OC(CO)C(O)C(O)C2OC2CC(C)(NCC3=CCC4CC3C4(C)C)C(O)C(C)O2)Oc2ccc(cc2Cl)C1O (stereo not drawn) [Compound 170] | ≤ 0.06 | 0.5 (≈ 0.29 µM) | 4 (≈ 2.32 µM) |
